Reference: BindingDB's records for doi:10.1074/jbc.M109.067967 (University of Michigan, 2010)

Assays:
[1] = target: Plasminogen activator inhibitor 1 (Mus musculus, UniProt P22777); experiment: Enzymatic Assay; settings: pH 7.8; 23 °C
[2] = target: T1, Plasminogen activator inhibitor 1 (Homo sapiens, UniProt P05121); experiment: Enzymatic Assay; settings: pH 7.8; 23 °C
[3] = target: T1, Plasminogen activator inhibitor 1; experiment: Enzyme activity assay using human and murine PAI-1.; settings: pH 7.8

| SMILES | IC50 [1] | IC50 [2] | IC50 [3] |
| --- | --- | --- | --- |
| O=C(OCC1OC(OC(=O)c2cc(O)c(O)c(OC(=O)c3cc(O)c(O)c(O)c3)c2)C(OC(=O)c2cc(O)c(O)c(OC(=O)c3cc(O)c(O)c(O)c3)c2)C(OC(=O)c2cc(O)c(O)c(OC(=O)c3cc(O)c(O)c(O)c3)c2)C1OC(=O)c1cc(O)c(O)c(OC(=O)c2cc(O)c(O)c(O)c2)c1)c1cc(O)c(O)c(OC(=O)c2cc(O)c(O)c(O)c2)c1 (centres undefined) [Tannic Acid, A] | 0.0041 µM | 0.007 µM | 0.0066 µM |
| O=C(O)c1cc(O)c(O)c(O)c1 [Gallic Acid, F] |  | 6.6 µM |  |
| O=C(Oc1cc(O)cc2c1C[C@@H](OC(=O)c1cc(O)c(O)c(O)c1)[C@@H](c1cc(O)c(O)c(O)c1)O2)c1cc(O)c(O)c(O)c1 [Epigallocatechin-3,5-Digallate, C] |  | 0.33 µM |  |
| O=C(OCCOC(=O)c1cc(O)c(O)c(O)c1)c1cc(O)c(O)c(O)c1 [CDE-008] | 0.162 µM |  | 0.044 µM |
| Oc1c(Cl)cc(Cl)c(Cl)c1Cc1c(O)c(Cl)cc(Cl)c1Cl [SMR000058356] |  | 3.8 µM |  |
| O=C(O[C@@H]1Cc2c(O)cc(O)cc2O[C@@H]1c1cc(O)c(O)c(O)c1)c1cc(O)c(O)c(O)c1 [(-)-Epigallocatechin-3-o-gallate] |  | 0.091 µM |  |
| O=C1c2ccc(O)c(O)c2C(=O)c2c(O)ccc(O)c21 [Quinalizarin, E] |  | 4.4 µM |  |
| O=C(OCC(COC(=O)c1cc(O)c(O)c(O)c1)OC(=O)c1cc(O)c(O)c(O)c1)c1cc(O)c(O)c(O)c1 [CDE-082] | 0.079 µM |  | 0.014 µM |
| O=C(O[C@H]1CCCC[C@H]1OC(=O)c1cc(O)c(O)c(O)c1)c1cc(O)c(O)c(O)c1 [CDE-031] | 0.132 µM |  | 0.02 µM |
| O=C(Oc1ccccc1OC(=O)c1cc(O)c(O)c(O)c1)c1cc(O)c(O)c(O)c1 [CDE-056] | 0.758 µM |  | 0.074 µM |
| O=C(O)c1cc(O)c2c(c1)[C@H]([C@H]1c3cc(C(=O)O)cc(O)c3C(=O)c3c(O[C@@H]4O[C@H](CO)[C@@H](O)[C@H](O)[C@H]4O)cccc31)c1cccc(O[C@@H]3O[C@H](CO)[C@@H](O)[C@H](O)[C@H]3O)c1C2=O [Sennoside A, G] |  | 51 µM |  |
| O=C(O[C@@H]1CCCC[C@H]1OC(=O)c1cc(O)c(O)c(O)c1)c1cc(O)c(O)c(O)c1 [CDE-034] | 0.644 µM |  | 0.116 µM |
